According to ChEMBL document CHEMBL1201862, “PubChem BioAssay data set” (2004):
Calls of active or inactive are those of the source.

How the values were obtained:
HEK293 [1] = test: optical interference in Abeta FP readout, dose response, artefact control for IDE activator project, biochemical, fluorescence polarization (AID 588442); type: functional, cell-based; conditions: Homo sapiens
HEK293 [2] = test: HEK cell cytotoxicity by LDH release, dose response, cytotoxicity control for IDE activator project, fluorescence, HEK cells (AID 588440); type: functional, cell-based; conditions: Homo sapiens;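 further: cytotoxicity by LDH release measuring loss of membrane integrity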
Insulin-degrading enzyme [3] = molecular target: T1, Insulin-degrading enzyme (Homo sapiens, UniProt P14735); test: activators of endogenous IDE in HEK cells, dose response, cell-based, fluorescence polarization (AID 588439); type: functional
T1 sequence (P14735 whole entry): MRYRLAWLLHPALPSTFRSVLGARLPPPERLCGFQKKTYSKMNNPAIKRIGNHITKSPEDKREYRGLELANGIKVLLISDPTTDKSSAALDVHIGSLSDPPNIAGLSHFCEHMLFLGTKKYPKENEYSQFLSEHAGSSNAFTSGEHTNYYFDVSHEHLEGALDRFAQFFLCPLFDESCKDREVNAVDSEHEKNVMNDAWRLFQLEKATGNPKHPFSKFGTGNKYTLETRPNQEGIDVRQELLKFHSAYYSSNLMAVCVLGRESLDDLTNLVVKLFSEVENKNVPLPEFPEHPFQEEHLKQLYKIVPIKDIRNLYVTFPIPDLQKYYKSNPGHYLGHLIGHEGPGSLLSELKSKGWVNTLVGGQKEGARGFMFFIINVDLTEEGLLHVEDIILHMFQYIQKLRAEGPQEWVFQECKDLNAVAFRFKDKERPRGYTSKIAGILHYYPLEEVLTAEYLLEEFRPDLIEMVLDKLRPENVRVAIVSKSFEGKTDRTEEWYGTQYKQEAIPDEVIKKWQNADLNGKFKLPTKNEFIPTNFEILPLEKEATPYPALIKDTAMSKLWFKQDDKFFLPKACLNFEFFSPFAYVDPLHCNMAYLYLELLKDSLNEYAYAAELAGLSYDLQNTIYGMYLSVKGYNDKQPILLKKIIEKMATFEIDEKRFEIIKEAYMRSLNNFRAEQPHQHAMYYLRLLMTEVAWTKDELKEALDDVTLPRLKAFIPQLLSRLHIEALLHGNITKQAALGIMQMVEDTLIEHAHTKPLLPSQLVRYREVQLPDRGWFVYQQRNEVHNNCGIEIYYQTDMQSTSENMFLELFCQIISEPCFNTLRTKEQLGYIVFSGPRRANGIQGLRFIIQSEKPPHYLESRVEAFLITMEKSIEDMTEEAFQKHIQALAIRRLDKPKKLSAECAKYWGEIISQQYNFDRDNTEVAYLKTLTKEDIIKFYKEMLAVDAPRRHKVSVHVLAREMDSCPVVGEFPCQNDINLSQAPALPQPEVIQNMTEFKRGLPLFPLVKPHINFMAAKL

Insulin-degrading enzyme [4] = molecular target: T1, Insulin-degrading enzyme; test: activators of recombinant IDE enzyme, dose response, counter-screen for IDE activator project, biochemical, fluorescence polarization (AID 588681)
[5] = molecular target: T2, Probable nicotinate-nucleotide adenylyltransferase (Staphylococcus aureus (strain N315), UniProt P65502); type: functional, Staphylococcus aureus subsp. aureus N315; conditions: read-out: IC50_Mean;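 on IC50 Mean: confirmatory dose-response retesting of NadD inhibitor hits first found in an ultra-high-throughput screen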
[6] = molecular target: T2, Probable nicotinate-nucleotide adenylyltransferase; type: functional, Staphylococcus aureus subsp. aureus N315
INS1 = test: beta cell apoptosis inhibitors, cytokine rescue, dose response, luminescence, retest (AID 449756); type: functional, cell-based; conditions: Rattus norvegicus;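 further: cell death triggered by IL-1 beta plus TNF-alpha plus IFN-gamma mixture; protective hits raise ATP signal compared with cytokine alone wells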
[7] = molecular target: T3, Ubiquitin-conjugating enzyme E2 N (Homo sapiens, UniProt P61088); type: functional;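 further: Dose-response confirmation in a TR-FRET assay detecting UBC13-driven polyubiquitin chain formation, inhibition measured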
T3 sequence (P61088 whole entry): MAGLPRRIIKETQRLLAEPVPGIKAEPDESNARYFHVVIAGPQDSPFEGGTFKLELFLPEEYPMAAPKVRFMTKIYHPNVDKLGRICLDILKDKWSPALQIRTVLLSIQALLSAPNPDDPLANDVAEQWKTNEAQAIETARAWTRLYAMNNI

[8] = Luminescence Cell-Based Dose Retest to Confirm Inhibitors of Cancer Stem Cells. [Related pubchem assays (depositor defined):AID2717, AID2721]; type: functional; conditions: Homo sapiens
[9] = molecular target: Disintegrin and metalloproteinase domain-containing protein 17 (Homo sapiens, UniProt P78536); test: ADAM17 protease inhibitors, dose response, counter-screen for ADAM10 exosite inhibitor project, biochemical, quenched FRET substrate (AID 743253)
[10] = molecular target: Heat shock protein HSP 90-alpha (Homo sapiens, UniProt P07900); type: functional, organism-based
[11] = ADAM10 inhibitors, peptide cleavage, dose response, biochemical, QFRET (AID 743254);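 further: ADAM10 enzyme with the DM2 quenched FRET peptide as substrate; EDANS fluorescence gain as the protease cuts the substrate; inhibitor potency against ADAM10 proteolytic activity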
[12] = molecular target: ATP-dependent molecular chaperone HSP82 (Candida albicans (strain WO-1) (Yeast), UniProt C4YTQ8); test: loss of DOC-induced GRE-beta-galactosidase reporter signal, dose response, Hsp90 inhibitor project, S. cerevisiae, luminescence (AID 2400); type: functional, cell-based;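 further: beta-galactosidase luminescence from glucocorticoid response element reporter as proxy for Hsp90 function; inhibitor potency where signal loss means Hsp90 inhibition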
[13] = C. albicans growth with fluconazole, confirmation, fluorescence, retest (AID 2467); type: functional, cell-based
[14] = NIH-3T3 fibroblast cytotoxicity, dose response, cytotoxicity control, cell-based, fluorescence, Alamar Blue, secondary assay (AID 2327); type: functional;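 further: NIH-3T3 mouse fibroblasts cultured with fluconazole at 8 µg/mL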
[15] = molecular target: T4, Serine/threonine-protein phosphatase (Candida dubliniensis (strain CD36 / CBS 7987 / NCPF 3949 / NRRLY-17841) (Yeast), UniProt B9W6M3); test: calcineurin pathway inhibitors in yeast reporter, dose response, S. cerevisiae, CDRE-lacZ, luminescence, secondary (AID 2388); type: functional, cell-based;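 further: yeast reporter cells carrying a calcineurin-responsive lacZ construct stimulated with calcium chloride; luminescent beta-galactosidase reporter signal in whole cells rather than isolated phosphatase activity; potency for inhibition where a drop in reporter signal means calcineurin blockade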
T4 sequence (B9W6M3 whole entry): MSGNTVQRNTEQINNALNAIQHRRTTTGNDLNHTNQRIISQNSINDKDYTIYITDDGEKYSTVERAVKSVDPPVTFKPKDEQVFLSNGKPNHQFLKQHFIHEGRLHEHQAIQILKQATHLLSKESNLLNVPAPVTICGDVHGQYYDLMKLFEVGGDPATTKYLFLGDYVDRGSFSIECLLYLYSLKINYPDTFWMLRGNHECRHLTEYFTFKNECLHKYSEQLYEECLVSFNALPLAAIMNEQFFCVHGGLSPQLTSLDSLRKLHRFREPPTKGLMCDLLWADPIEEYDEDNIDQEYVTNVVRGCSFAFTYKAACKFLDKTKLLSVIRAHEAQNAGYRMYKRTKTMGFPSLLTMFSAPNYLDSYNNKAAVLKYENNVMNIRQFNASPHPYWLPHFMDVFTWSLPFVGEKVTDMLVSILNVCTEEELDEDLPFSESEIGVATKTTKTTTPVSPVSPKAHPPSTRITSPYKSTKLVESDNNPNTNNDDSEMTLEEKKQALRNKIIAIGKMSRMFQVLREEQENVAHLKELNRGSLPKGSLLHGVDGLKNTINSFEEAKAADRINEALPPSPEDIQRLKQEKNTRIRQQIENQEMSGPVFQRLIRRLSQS

Vero [16] = test: Vero cell cytotoxicity, cytotoxicity control for flavivirus capping enzyme inhibitors (AID 588742); type: functional; conditions: Chlorocebus sabaeus
Streptococcus = test: Group A Streptococcus viability loss, dose response, counter-screen for streptokinase expression inhibitor project, luminescence, BacTiterGlo (AID 1915); type: functional, organism-based;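 further: potency for reduction of bacterial viability or growth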
[17] = molecular target: T5, Low molecular weight phosphotyrosine protein phosphatase (Homo sapiens, UniProt P24666); type: functional; conditions: read-out: IC50_Mean;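 further: Dose-response confirmation assay measuring inhibition of LMPTP enzyme activity by fluorescence intensity read-out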
T5 sequence (P24666 whole entry): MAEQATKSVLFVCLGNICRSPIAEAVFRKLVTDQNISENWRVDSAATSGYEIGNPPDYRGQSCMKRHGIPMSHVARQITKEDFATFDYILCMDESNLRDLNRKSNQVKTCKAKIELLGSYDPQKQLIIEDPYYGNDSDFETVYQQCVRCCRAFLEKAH

[18] = system: Streptococcus sp. 'group A'; test: growth inhibition of control SK(-) GAS strain, dose response, counter-screen for streptokinase expression inhibitor project, luminescence, kanamycin, BacTiterGlo, confirmation (AID 1900); type: functional, organism-based
Vero [19] = test: cells; type: functional; conditions: Chlorocebus sabaeus
[20] = molecular target: T6, Microphthalmia-associated transcription factor (Homo sapiens, UniProt O75030); test: TRPM1 promoter luciferase signal decrease, dose response, MITF inhibitor project, cell-based, SK-MEL-5, cherry-picked, set 3 (AID 493073); type: functional
T6 sequence (O75030 whole entry): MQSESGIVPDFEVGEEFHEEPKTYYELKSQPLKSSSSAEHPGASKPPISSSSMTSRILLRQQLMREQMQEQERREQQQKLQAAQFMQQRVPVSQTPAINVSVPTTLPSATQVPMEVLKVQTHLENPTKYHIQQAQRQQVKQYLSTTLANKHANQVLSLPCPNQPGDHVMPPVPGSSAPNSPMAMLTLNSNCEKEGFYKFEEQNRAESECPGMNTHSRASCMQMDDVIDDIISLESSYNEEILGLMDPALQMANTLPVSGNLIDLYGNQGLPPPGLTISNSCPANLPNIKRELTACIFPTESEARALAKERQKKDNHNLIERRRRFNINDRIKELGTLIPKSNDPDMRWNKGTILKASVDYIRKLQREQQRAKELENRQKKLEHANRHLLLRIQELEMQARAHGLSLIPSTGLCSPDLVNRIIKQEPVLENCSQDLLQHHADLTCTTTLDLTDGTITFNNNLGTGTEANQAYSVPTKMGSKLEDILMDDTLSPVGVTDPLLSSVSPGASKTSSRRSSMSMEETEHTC

Vero [21] = test: cells; type: functional, cell-based; conditions: Chlorocebus sabaeus
Fatty acid synthase [22] = molecular target: T7, Fatty acid synthase (Homo sapiens, UniProt P49327); test: FAS thioesterase domain inhibitors, dose response, biochemical, kinetic fluorescence intensity (AID 624326); type: functional;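 further: rate of fluorescence rise from hydrolysis of a fluorogenic O-methyl fluorescein ester substrate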
[23] = Shn3 3'UTR reporter inhibitors, dose response, cell-based, Clone20 osteoblasts, firefly luciferase, cherry-picked (AID 624132); type: functional;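 further: firefly luciferase luminescence from reporter carrying the Shn3 3'UTR in osteoblasts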
[24] = HepG2 cell cytotoxicity, dose response, cytotoxicity control for Shn3 inhibitor project, CellTiter-Glo, cherry-picked (AID 624134); type: functional, cell-based
Fatty acid synthase [25] = molecular target: T7, Fatty acid synthase; test: FAS thioesterase domain inhibitors, dose response, biochemical, endpoint fluorescence intensity, uHTS hits (AID 624327); type: functional;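 further: fluorescence from hydrolysis of an O-methyl fluorescein acyl ester substrate by the enzyme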
[26] = control 3'UTR Renilla luciferase suppression, dose response, counter-screen for Shn3 inhibitor project, cell-based, Clone20-Shn3RL, cherry-picked (AID 624133); type: functional

T7 sequence (P49327 whole entry, the tested form may be a part): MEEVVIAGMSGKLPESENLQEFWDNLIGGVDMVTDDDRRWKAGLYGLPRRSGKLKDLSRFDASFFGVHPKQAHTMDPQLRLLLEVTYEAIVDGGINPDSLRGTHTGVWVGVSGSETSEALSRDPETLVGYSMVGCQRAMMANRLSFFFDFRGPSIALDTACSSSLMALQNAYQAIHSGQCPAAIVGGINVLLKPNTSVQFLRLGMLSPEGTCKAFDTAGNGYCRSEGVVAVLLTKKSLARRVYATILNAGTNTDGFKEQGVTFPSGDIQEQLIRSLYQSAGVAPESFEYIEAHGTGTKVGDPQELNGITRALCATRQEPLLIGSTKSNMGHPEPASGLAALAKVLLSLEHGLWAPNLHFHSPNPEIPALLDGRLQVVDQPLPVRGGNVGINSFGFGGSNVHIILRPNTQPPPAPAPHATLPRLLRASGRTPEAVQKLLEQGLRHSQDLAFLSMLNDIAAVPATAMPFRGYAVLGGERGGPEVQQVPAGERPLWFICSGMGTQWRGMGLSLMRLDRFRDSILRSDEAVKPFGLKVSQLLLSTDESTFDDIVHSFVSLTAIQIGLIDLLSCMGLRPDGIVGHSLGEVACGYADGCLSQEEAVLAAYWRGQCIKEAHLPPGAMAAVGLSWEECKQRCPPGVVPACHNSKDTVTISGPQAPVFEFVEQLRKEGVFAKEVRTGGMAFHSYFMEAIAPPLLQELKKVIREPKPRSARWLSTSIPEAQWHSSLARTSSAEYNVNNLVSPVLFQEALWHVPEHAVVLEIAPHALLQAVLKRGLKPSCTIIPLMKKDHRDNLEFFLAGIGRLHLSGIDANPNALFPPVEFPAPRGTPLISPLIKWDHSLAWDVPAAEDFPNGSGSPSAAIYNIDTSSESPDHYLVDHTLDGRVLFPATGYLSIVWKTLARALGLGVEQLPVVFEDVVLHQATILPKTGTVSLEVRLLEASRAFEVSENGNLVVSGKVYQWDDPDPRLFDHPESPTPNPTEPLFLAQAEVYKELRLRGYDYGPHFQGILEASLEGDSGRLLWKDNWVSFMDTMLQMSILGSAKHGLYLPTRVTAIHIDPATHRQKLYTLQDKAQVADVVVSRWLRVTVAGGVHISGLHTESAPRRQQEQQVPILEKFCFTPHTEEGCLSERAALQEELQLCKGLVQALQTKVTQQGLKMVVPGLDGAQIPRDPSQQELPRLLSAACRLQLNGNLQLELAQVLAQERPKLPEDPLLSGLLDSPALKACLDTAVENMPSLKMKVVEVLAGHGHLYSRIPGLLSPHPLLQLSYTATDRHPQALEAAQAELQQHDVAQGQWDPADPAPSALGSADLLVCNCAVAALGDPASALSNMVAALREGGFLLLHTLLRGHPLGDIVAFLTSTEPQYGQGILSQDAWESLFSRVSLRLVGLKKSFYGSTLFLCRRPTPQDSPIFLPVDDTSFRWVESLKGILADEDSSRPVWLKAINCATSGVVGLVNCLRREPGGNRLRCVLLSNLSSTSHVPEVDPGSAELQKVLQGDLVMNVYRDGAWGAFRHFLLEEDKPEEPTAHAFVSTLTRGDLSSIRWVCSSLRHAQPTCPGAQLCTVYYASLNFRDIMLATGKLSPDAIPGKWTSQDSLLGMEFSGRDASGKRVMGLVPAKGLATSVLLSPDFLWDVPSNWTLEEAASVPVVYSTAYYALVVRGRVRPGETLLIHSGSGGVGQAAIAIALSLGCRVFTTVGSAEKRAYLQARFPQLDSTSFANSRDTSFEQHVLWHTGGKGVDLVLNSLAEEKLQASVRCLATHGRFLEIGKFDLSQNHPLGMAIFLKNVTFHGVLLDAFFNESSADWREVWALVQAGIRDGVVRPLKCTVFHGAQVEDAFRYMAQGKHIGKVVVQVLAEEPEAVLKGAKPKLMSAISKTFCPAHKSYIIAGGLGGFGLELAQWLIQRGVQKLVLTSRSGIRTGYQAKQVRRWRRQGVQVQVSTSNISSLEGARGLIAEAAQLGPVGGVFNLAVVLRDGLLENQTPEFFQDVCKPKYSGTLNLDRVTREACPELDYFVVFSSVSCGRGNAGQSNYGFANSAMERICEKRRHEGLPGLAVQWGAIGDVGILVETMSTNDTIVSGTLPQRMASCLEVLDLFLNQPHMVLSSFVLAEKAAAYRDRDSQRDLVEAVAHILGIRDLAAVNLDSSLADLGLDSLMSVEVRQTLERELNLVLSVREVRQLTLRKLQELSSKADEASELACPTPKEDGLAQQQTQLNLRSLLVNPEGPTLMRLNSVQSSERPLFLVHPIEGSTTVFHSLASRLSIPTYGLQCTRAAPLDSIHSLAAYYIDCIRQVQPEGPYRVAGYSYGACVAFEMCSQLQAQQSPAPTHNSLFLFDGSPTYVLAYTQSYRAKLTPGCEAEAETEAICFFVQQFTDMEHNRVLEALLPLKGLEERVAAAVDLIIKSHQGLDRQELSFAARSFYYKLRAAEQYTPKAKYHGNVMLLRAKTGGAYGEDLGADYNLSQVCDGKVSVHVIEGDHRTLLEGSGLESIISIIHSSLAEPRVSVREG
T2 sequence (P65502 whole entry): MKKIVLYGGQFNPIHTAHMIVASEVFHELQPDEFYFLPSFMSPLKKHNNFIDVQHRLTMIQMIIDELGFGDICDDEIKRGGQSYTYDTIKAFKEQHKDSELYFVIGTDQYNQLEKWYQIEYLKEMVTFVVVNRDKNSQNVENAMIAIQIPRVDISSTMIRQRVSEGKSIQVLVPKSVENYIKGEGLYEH
Chain of Disintegrin and metalloproteinase domain-containing protein 17 (P78536 whole entry, the tested form may be a part): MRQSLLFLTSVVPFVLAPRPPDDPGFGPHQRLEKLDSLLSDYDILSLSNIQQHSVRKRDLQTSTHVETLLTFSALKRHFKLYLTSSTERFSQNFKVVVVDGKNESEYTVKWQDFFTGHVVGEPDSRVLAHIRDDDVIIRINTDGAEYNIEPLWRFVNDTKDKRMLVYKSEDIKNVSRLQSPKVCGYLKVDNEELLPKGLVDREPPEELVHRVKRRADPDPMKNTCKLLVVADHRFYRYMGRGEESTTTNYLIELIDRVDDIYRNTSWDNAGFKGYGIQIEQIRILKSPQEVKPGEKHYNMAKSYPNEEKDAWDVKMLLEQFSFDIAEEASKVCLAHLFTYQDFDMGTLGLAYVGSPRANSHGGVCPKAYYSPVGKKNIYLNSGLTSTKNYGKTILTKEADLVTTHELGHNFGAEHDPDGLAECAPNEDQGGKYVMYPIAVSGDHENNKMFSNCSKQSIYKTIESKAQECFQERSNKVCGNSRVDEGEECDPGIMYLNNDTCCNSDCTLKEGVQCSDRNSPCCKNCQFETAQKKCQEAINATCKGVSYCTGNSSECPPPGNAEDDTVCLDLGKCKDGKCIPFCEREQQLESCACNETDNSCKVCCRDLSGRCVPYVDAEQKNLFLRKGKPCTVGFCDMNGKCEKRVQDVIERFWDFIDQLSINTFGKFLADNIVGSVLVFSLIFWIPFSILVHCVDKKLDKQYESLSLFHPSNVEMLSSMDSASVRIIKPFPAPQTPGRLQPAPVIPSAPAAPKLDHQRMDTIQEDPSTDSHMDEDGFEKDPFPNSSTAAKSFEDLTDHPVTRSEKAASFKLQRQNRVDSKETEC
Chain of ATP-dependent molecular chaperone HSP82 (C4YTQ8 whole entry): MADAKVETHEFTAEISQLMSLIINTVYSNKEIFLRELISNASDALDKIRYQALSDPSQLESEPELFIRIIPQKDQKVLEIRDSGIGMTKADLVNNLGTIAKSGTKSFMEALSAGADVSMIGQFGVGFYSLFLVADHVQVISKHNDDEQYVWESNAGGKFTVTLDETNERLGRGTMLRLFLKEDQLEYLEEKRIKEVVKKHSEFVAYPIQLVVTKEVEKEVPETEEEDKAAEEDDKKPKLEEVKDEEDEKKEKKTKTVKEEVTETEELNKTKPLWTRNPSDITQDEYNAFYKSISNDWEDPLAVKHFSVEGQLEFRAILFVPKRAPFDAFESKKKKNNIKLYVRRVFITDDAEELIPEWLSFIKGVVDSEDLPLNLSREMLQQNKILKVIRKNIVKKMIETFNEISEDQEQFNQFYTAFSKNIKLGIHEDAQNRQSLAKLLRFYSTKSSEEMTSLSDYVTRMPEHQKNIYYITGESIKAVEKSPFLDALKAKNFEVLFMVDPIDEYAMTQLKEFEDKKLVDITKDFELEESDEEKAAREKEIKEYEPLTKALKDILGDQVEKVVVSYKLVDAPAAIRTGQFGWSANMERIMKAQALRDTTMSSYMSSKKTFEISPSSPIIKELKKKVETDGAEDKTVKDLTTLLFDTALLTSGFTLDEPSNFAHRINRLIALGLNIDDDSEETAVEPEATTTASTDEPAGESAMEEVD

In the case of `CCOC(=O)/C=C/CN(C(=O)OC(C)(C)C)S(=O)(=O)N1CC=CC1`, the EC50 (HEK293 [1]) is reported as > 55.9 µM (inactive), the IC50 (HEK293 [2]) is reported as > 89.2 µM (inactive) and the EC50 (Insulin-degrading enzyme [3]) is reported as > 54.7 µM (inactive). For the same compound, the EC50 (Insulin-degrading enzyme [4]) was > 54.7 µM (inactive).
With `Oc1ccc(C[C@H]2CNC(=S)N2CC2CCCN2C[C@H](Cc2ccc(O)cc2)N2C[C@H](Cc3ccccc3)N(CC3CCCCC3)C2=S)cc1` (some centres not stated) the IC50 [5] was 22.1 µM (active) and the IC50 [6] was 16.3 µM (active).
In the case of `COC(=O)C1=C(C)N(Cc2ccccc2)C(NCc2cccc(Cl)c2)=N[C@H]1c1cccc(F)c1`, the EC50 (HEK293 [1]) is reported as > 56 µM (inactive), the IC50 (HEK293 [2]) is reported as 12.1 µM (inactive) and the AC50 (INS1) is reported as 7.03 µM (active). For the same compound, the IC50 [7] was > 20 µM (inactive), the EC50 (Insulin-degrading enzyme [3]) was 25.2 µM (inactive) and the EC50 (Insulin-degrading enzyme [4]) was > 54.7 µM (inactive). For the same compound, the AC50 [8] was 3.48 µM (active).
For `CC1(C)C=Cc2c(ccc3c2OC[C@H](c2ccc(O)cc2O)C3)O1`, the IC50 [9] was > 69.5 µM (inactive), the EC50 (HEK293 [1]) was > 54.7 µM (inactive) and the AC50 [10] was 7.45 µM (active). For the same compound, the IC50 (HEK293 [2]) was 22.1 µM (inactive), the EC50 (Insulin-degrading enzyme [3]) was > 54.7 µM (inactive) and the EC50 (Insulin-degrading enzyme [4]) was > 54.7 µM (inactive). The AC50 [8] was 3.16 µM (active) and the IC50 [11] was 19.5 µM (inactive).
In the case of `Cc1cc(=O)oc2cc(Oc3ccc([N+](=O)[O-])cc3[N+](=O)[O-])ccc12`, the EC50 [12] is reported as > 160 µM (inactive), the EC50 [13] is reported as 1.3 µM (active) and the EC50 [14] is reported as 35.9 µM (inconclusive). For the same compound, the EC50 [15] was > 180 µM (inactive).
For `O=C(Nc1ccncc1)c1cc2ccccc2cc1O`, the CC50 (Vero [16]) was > 40 µM (active).
With `CC[C@H]1OC(=O)[C@H](C)[C@@H](O[C@H]2C[C@@](C)(OC)[C@@H](O)[C@H](C)O2)[C@H](C)[C@@H](O[C@@H]2O[C@H](C)C[C@H](N(C)C)[C@H]2O)[C@](C)(O)C[C@@H](C)C(=O)[C@H](C)[C@@H](O)[C@]1(C)O` [ERYTHROMYCIN] the EC50 (Streptococcus) was < 0.06 µM (active), the IC50 [17] was 47.1 µM (inactive) and the EC50 [18] was < 0.06 µM (active).
For `CN(C)c1ccc(C(=O)C=Cc2ccc([N+](=O)[O-])cc2)cc1`, the IC50 [17] was 80 µM (inactive).
With `Cc1oc(-c2ccc(Cl)cc2)nc1CN1CCC(C(=O)NCCCN2CCCC(C)C2)CC1` (configuration not stated) the CC50 (Vero [19]) was 22.5 µM (active), the AC50 [20] was 13.2 µM (active) and the IC50 (Vero [21]) was 4.32 µM (active).
In the case of `COc1ccc(CNc2nc(NCc3ccc(OC)cc3)c3[nH]cnc3n2)cc1`, the CC50 (Vero [16]) is reported as > 40 µM (active).
In the case of `O=C1C(F)=CC(COC(c2ccccc2)(c2ccccc2)c2ccccc2)OC1n1cc(F)c(=O)[nH]c1=O` (configuration not stated), the IC50 (Fatty acid synthase [22]) is reported as 8.13 µM (active), the AC50 [23] is reported as 0.428 µM (active) and the CC50 (Vero [19]) is reported as 6.83 µM (active). The AC50 [10] was 2.6 µM (active), the AC50 [24] was 9.11 µM (active) and the IC50 (Vero [21]) was 12.1 µM (active). For the same compound, the IC50 (Fatty acid synthase [25]) was 7.69 µM (active) and the AC50 [26] was 2.42 µM (active).
